# In US3975535A, “Anti-allergic-3-carboxy-isocoumarin compositions and methods of use” (Beecham Group Limited, priority 1973, dated 1976):
# Tested on: PCA responses
# Test: Rat Passive Cutaneous Anaphylaxis (PCA) test
# Type: in vivo, Wistar rats
# Procedure: All of the compounds prepared in the preceding Examples were submitted for biological testing. The test system was the Rat Passive Cutaneous Anaphylaxis (PCA) test described below in (ii).
# i. Serum containing heat labile homocytotropic antibody was raised in rats by a method similar to that used by Mota. (I. Mota Immunology 1964, 7, 681).
# Male Wistar rats of 250-300g. were injected intraperitoneally with 0.5 of Bordatella pertussis vaccine (containing 4 × 10^10 dead organism per ml) and subcutaneously with 0.5ml of an emulsion of 100mg. of ovalbumin in 2ml of saline and 3ml of incomplete Freunds' adjuvant. Rats were bled by cardiac puncture on day 18, the blood was pooled and separated and serum stored at -20° and thawed only once before use.
# ii. The P.C.A. test was similar to that described by Ovary and Bier (A. Ovary and O. E. Bier, Proc. Soc. Exp. Biol. Med. 1952, 81, 584) and Goose and Blair (J. Goose and AMJ. N. Blair, Immunology 1969, 16, 769).
# 0.1ml of each of six twofold serial dilutions of the serum in 0.9% saline were injected intradermally into separate sites on the shaved dorsal surface of 250-350g. Wistar rats. 72 hours later the animals were challenged by i.v. injection of 0.3ml of 1% ovalbumin mixed with 0.1ml of a 5% solution of pontamine sky blue dye both in isotonic saline buffered with pH. 7.2 Sorenson buffer (P.B.S.). The rats were killed after 20 minutes and the diameter of the blue wheals at the antibody injection sites were measured. The starting dilution of the serum was adjusted so that there was no response, after challenge, at the site of injection of the highest dilution and a maximum response at the lowest dilution. Typically, six twofold serial dilutions of the serum from 1/4 to 1/128 were used.
# Compounds were tested for their ability to reduce the diameter of the wheals at the injection sites of dilutions of antibody which on all the controls have less than maximum response. Amounts of the compounds were administered to rats each amount to a test group of six animals at a specified time prior to intravenous challenge with ovalbumin. The diameters of the blue wheals which developed on the tests group of animals were compared with those on a control group of six animals treated in the same way as the test group, but which had not received the compound under test.
# % Inhibition of P.C.A. = 100 (1 - a/b)
# a = The mean of the sum of the diameters of the wheals produced in the test group of animals at those antibody sites where all the control group of animals gave less than maximum response.
# b = The mean of the sum of diameters of the wheals produced in the control group of animals at those antibody sites where all the animals in the group gave less than maximum response.
# The preferred method of administration was a solution of the test compound dissolved in pH 7.2 buffer and neutralised with sodium bicarbonate.
# [1] = iv, time 0 mins prior to i.v. ovalbumin challenge
# [2] = iv, time 30 mins prior to i.v. ovalbumin challenge
# [3] = first dose pair, only one time (0) printed for the whole line
# [4] = second dose pair, time not printed separately
# [5] = iv, time 60 mins prior to i.v. ovalbumin challenge
# [6] = iv, time 10 mins prior to i.v. ovalbumin challenge
smiles,measurement,setting,value
"O=C(O)c1cc2ccccc2c(=O)o1 [Example 1, Isocoumarin-3-carboxylic acid]",inhibition at 25 mg/kg,[1],29%
same,inhibition at 25 mg/kg,[2],-13%
same,inhibition at 100 mg/kg,[1],62%
same,inhibition at 100 mg/kg,[2],16%
"Cc1c(C(=O)O)oc(=O)c2ccccc12 [Example 2, 4-Methylisocoumarin-3-carboxylic acid]",inhibition at 25 mg/kg,[1],-3%
same,inhibition at 25 mg/kg,[2],0%
same,inhibition at 100 mg/kg,[1],41%
same,inhibition at 100 mg/kg,[2],10%
"Cc1cccc2cc(C(=O)O)oc(=O)c12 [Example 3, 8-Methylisocoumarin-3-carboxylic acid]",inhibition at 25 mg/kg,[3],44%
same,inhibition at 25 mg/kg,[4],15%
same,inhibition at 100 mg/kg,[3],66%
same,inhibition at 100 mg/kg,[4],28%
"Cc1c(C(=O)O)oc(=O)c2c(C)cccc12 [Example 4, 4,8-Dimethylisocoumarin-3-carboxylic acid]",inhibition at 25 mg/kg,[1],10%
same,inhibition at 25 mg/kg,[2],8%
same,inhibition at 100 mg/kg,[1],12%
same,inhibition at 100 mg/kg,[2],48%
"COc1ccc2cc(C(=O)O)oc(=O)c2c1 [Example 5, 7-Methoxyisocoumarin-3-carboxylic acid]",inhibition at 25 mg/kg,[1],9%
same,inhibition at 25 mg/kg,[5],4%
same,inhibition at 100 mg/kg,[1],9%
same,inhibition at 100 mg/kg,[5],55%
"O=C(O)c1cc2ccc(Br)cc2c(=O)o1 [Example 6, 7-Bromoisocoumarin-3-carboxylic acid]",inhibition at 25 mg/kg,[1],26%
same,inhibition at 25 mg/kg,[5],39%
same,inhibition at 100 mg/kg,[1],39%
same,inhibition at 100 mg/kg,[5],0%
"Cc1cc2c(C)c(C(=O)O)oc(=O)c2cc1C [Example 7, 4,6,7-Trimethylisocoumarin-3-carboxylic acid monohydrate]",inhibition at 25 mg/kg,[1],10%
same,inhibition at 25 mg/kg,[2],39%
same,inhibition at 100 mg/kg,[1],15%
same,inhibition at 100 mg/kg,[2],49%
"COc1cc2cc(C(=O)O)oc(=O)c2cc1OC [Example 8, 6,7-Dimethoxyisocoumarin-3-carboxylic acid]",inhibition at 25 mg/kg,[1],64%
same,inhibition at 25 mg/kg,[2],24%
same,inhibition at 100 mg/kg,[1],84%
same,inhibition at 100 mg/kg,[2],24%
"O=C(O)c1cc2ccccc2c(=O)[nH]1 [Example 9, Isocarbostyril-3-carboxylic acid]",inhibition at 25 mg/kg,[1],21%
same,inhibition at 25 mg/kg,[2],15%
same,inhibition at 100 mg/kg,[1],36%
same,inhibition at 100 mg/kg,[2],25%
"Cc1c(C(=O)O)[nH]c(=O)c2ccccc12 [Example 10, 4-Methylisocarbostyril-3-carboxylic acid]",inhibition at 25 mg/kg,[1],12%
same,inhibition at 25 mg/kg,[2],-13%
same,inhibition at 100 mg/kg,[1],26%
same,inhibition at 100 mg/kg,[2],21%
"COc1cc2cc(C(=O)O)[nH]c(=O)c2cc1OC [Example 11, 6,7-Dimethoxyisocarbostyril-3-carboxylic acid]",inhibition at 25 mg/kg,[1],11%
same,inhibition at 25 mg/kg,[2],2%
same,inhibition at 100 mg/kg,[1],38%
same,inhibition at 100 mg/kg,[2],17%
"O=C(O)c1cc2ccccc2c(=O)s1 [Example 12, 2-Thiaisocoumarin-3-carboxylic acid]",inhibition at 25 mg/kg,[1],0%
same,inhibition at 25 mg/kg,[5],4%
same,inhibition at 100 mg/kg,[1],22%
same,inhibition at 100 mg/kg,[5],14%
"Cc1c(C(=O)O)sc(=O)c2ccccc12 [Example 13, 4-Methyl-2-thiaisocoumarin-3-carboxylic acid]",inhibition at 25 mg/kg,[1],-6%
same,inhibition at 25 mg/kg,[5],6%
same,inhibition at 100 mg/kg,[1],6%
same,inhibition at 100 mg/kg,[5],19%
"COc1cc2cc(C(=O)O)sc(=O)c2cc1OC [Example 14, 6,7-Dimethoxy-2-thiaisocoumarin-3-carboxylic acid]",inhibition at 12.5 mg/kg,"iv, Dose 12.5 mg/Kg, time 10 mins prior to i.v. ovalbumin challenge",28%
same,inhibition at 25 mg/kg,[6],47%
same,inhibition at 50 mg/kg,"iv, Dose 50 mg/Kg, time 10 mins prior to i.v. ovalbumin challenge",79%
same,inhibition at 100 mg/kg,[6],87%
"COc1ccc2cc(C(=O)O)oc(=O)c2c1OC [Example 15, 7,8-Dimethoxyisocoumarin-3-carboxylic acid]",inhibition at 25 mg/kg,[6],64%
same,inhibition at 25 mg/kg,[2],12%
same,inhibition at 100 mg/kg,[6],63%
same,inhibition at 100 mg/kg,[2],29%
